Assay results published in ChEMBL document CHEMBL5726069, “1-(3-aminopropyl) substituted cyclic amine compounds, preparation method therefor, and pharmaceutical compositions and uses thereof” (2019).

Target: C-C chemokine receptor type 5 (Homo sapiens, UniProt P51681)
Test: Calcium Flux Inhibition Experiment: 1. HEK293 cells which can stably express CCR5 were inoculated in a 96-well plate and incubated overnight.2. The medium in each well into which cells were innoculated was removed and 40 μl/well of freshly prepared dye was added. The plate was placed in a 37° C. incubator and incubated for 40 minutes at constant temperature.3. The medicament to be determined was diluted with calcium buffer to eight concentration gradients, which is 1×10−4 M, 1×10−5 M, 1×10−6 M, 1×10−7 M, 1×10−8 M, 1×10−9 M, 1×10−10 M, and 1×10−11 M, respectively, and homogeneously mixed.4. The dye was removed. Freshly prepared calcium buffer was used to wash for one time, 50 μl of calcium buffer was added.5. FlexStation II was used for detection. 25 μl of calcium buffer containing the medicament to be determined was added automatically from the 15th second. The fluorescence value at 525 nm was read ultimately.
Format: cell-based

C-C chemokine receptor type 5, sequence (P51681 whole entry): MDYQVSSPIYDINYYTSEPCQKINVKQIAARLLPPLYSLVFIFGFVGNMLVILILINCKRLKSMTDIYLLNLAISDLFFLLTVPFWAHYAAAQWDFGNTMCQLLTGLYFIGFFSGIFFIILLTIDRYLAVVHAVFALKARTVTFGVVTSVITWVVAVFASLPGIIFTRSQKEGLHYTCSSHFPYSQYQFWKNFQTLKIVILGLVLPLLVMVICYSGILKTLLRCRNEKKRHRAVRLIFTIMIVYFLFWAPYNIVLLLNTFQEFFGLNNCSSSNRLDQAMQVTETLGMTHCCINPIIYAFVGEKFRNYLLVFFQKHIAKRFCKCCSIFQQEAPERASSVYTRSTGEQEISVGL

Row | Compound | IC50
1 | Cc1nnc(C(C)C)n1C1CC2CCC(C1)N2CC[C@H](NC(=O)C1CCC(F)(F)CC1)c1nccs1 (stereo partly drawn) | 10.3 nM
2 | CC(=O)Nc1ccc([C@H](CCN2C3CCC2CC(n2c(C)nnc2C(C)C)C3)NC(=O)C2CCC(F)(F)CC2)s1 (stereo partly drawn) | 8.23 nM
3 | CCc1ccc([C@H](CCN2C3CCC2CC(n2c(C)nnc2C(C)C)C3)NC(=O)C2CCC(F)(F)CC2)s1 (stereo partly drawn) | 4.63 nM
4 | Cc1nnc(C(C)C)n1C1CC2CCC(C1)N2CC[C@H](NC(=O)C1CCC(F)(F)CC1)c1csc2ccccc12 (stereo partly drawn) | 11.4 nM
5 | Cc1nnc(C(C)C)n1C1CC2CCC(C1)N2CC[C@H](NC(=O)C1CCC(F)(F)CC1)c1ccc(C#N)s1 (stereo partly drawn) | 9.45 nM
6 | Cc1nnc(C(C)C)n1C1CC2CCC(C1)N2CC[C@H](NC(=O)C1CCC(F)(F)CC1)c1ccc(Cl)s1 (stereo partly drawn) | 10.4 nM
7 | Cc1nnc(C(C)C)n1C1CC2CCC(C1)N2CCC(NC(=O)C1CCC(F)(F)CC1)c1cccs1 (stereo not drawn) | 1.95 nM
8 | Cc1ccc([C@H](CCN2C3CCC2CC(n2c(C)nnc2C(C)C)C3)NC(=O)C2CCC(F)(F)CC2)s1 (stereo partly drawn) | 7.28 nM
9 | Cc1ccc([C@H](CCN2C3CCC2CC(n2c(C)nnc2C(C)C)C3)NC(=O)CC#N)s1 (stereo partly drawn) | 8.29 nM
10 | Cc1nnc(C(C)C)n1C1CC2CCC(C1)N2CC[C@H](NC(=O)C1CCCCC1)c1ccc(C(=O)N(C)C)s1 (stereo partly drawn) | 1.64 nM
11 | Cc1nnc(C(C)C)n1C1CC2CCC(C1)N2CC[C@H](NC(=O)C1CCC(F)(F)CC1)c1ccc(F)s1 (stereo partly drawn) | 9.33 nM
12 | CNC(=O)c1ccc([C@H](CCN2C3CCC2CC(n2c(C)nnc2C(C)C)C3)NC(=O)C2CCC(F)(F)CC2)s1 (stereo partly drawn) | 13.7 nM
13 | CC(=O)Oc1ccc([C@H](CCN2C3CCC2CC(n2c(C)nnc2C(C)C)C3)NC(=O)C2CCCCC2)s1 (stereo partly drawn) | 1.38 nM
